Patent US12222275B2, “Methods and systems for particle characterisation by imaging free-floating particle movement in liquid enviornment” (VRIJE UNIVERSITEIT BRUSSEL, priority 2019, dated 2025)
“Also recorded” adds a separate entry of the source.

Legend:
[1] = tested on: C. albicans CAF2-1 wild-type strain; assay: Optical nanomotion detection (ONMD), amphotericin B dose-response; format: cell-based, Candida albicans
Source text: (§1) To track single cells, in the present example a cross-correlation image registration algorithm was used. The method was documented to efficiently track subtle modifications of keratin networks in living cells and displacements of myoblasts. The algorithm is based on the initial estimation of the cross-correlation peak between the first and every subsequent frame. […] Our program calculates the cell displacement for each frame and saves the trajectories of tracked cells as well as the root mean square of the displacement to an MS Excel file.
(§2) The cellular x-y movements were monitored by recording 12 s long movies (1000 frames) taken at a magnification of 400× (FIG. 13). By periodically recording these movies, temporal behavior of the cells was characterized as a function of different chemical and physical stimuli (FIG. 13A-B). To track the cellular movements of single cells, we used a cross-correlation image registration algorithm. The algorithm is based on the initial estimation of the cross-correlation peak between the first and every subsequent frame. It provides a numerical value for the image translation with a sub-pixel (sub-μm) resolution. The cell displacement for each frame, the trajectories of tracked cells (FIG. 13C) as well as the root mean square of the total displacement (FIG. 13F) were calculated. Single cell nanomotions were characterized by plotting the distribution of the displacements per frame as a violin plot (FIG. 13D). The movements of the set of 20 cells were characterized by plotting grouped cellular displacements per frame as violin plots and the total displacements of 20 cells over 1000 frames as box-and-whisker plots (FIG. 13E).
(§3) Ten μl of each yeast cell culture was dispensed in one of the microwells, using a 4 Well FulTrac micro-Insert (ibidi, Germany) in an imaging micro-dish (Ibidi, Germany). The yeast cells were allowed to sediment for a period of 10 min before starting the measurement. The movement of cells was observed by taking movies of 1000 frames with a framerate of 84 fps using an EMCCD camera (Andor iXon, Oxford Instruments) using a Nikon TE-2000 microscope with a 40× objective. The Petri dish was kept at 30° C. using a microscope stage top incubator (ibidi, Germany).
The effect of ethanol on the viability of the cells was compared with cells grown in YPD medium as a reference. Therefore, first cell nanomotion videos were recorded and next (after approximately 1 min), 200 μl of ethanol (70% v/v) was added to the top chamber of the 4 micro-Insert wells. Videos were recorded every hour during a period of 5 h. Caspofungin, amphotericin B and fluconazole were used as antifungals in the antifungal susceptibility testing, i.e. to assess their effect on cell viability. Before starting the treatment with the antifungal, reference (no treatment) videos were recorded of yeast cells in YPD medium (time=0 h). Then (at time=1 min) 200 μl of a certain concentration of antifungal was added to the chamber (200 μl) above the 4 microwells. Measurements were taken every hour during a period of 5 h. […]
(§4) The optical nanomotion detection algorithm calculates the cell displacement for each frame and saves the trajectories of tracked cells as well as the root mean square of the displacement to a MS Excel file. […] The Python package nd2 reader (Verweij R, Online: http://www.lighthacking.nl/nd2reader/) was employed to import the videos in the ND2 Nikon format.

[2] = tested on: Candida lusitaniae DSY4590; details: FKS1 S638Y, erg4; ref [7] unpublished; cited from earlier work
[3] = tested on: C. albicans DSY294; assay: Optical nanomotion detection (ONMD) of free yeast cells, antifungal susceptibility test; format: cell-based, Candida albicans
Source text: as §1, §2, §3
(§5) The effect of ethanol on the viability of the cells was compared with cells grown in YPD medium as a reference. Therefore, first cell nanomotion videos were recorded and next (after approximately 1 min), 200 μl of ethanol (70% v/v) was added to the top chamber of the 4 micro-Insert wells. Videos were recorded every hour during a period of 5 h. Caspofungin, amphotericin B and fluconazole were used as antifungals in the antifungal susceptibility testing, i.e. to assess their effect on cell viability. Before starting the treatment with the antifungal, reference (no treatment) videos were recorded of yeast cells in YPD medium (time=0 h). Then (at time=1 min) 200 μl of a certain concentration of antifungal was added to the chamber (200 μl) above the 4 microwells. Measurements were taken every hour during a period of 5 h. As abiotic reference particles, silica microbeads (monodisperse silica standard, Whitehouse Scientific) with a diameter of 3 μm were used. The beads were dissolved in YPD medium and the measurements were performed at 30° C.
(§6) The optical nanomotion detection algorithm calculates the cell displacement for each frame and saves the trajectories of tracked cells as well as the root mean square of the displacement to a MS Excel file. The main part of the program is based on the algorithm of Guizar-Sicairos et al.[14], ported from Matlab to Python in the open source image processing library sci-kit image. The Python package nd2 reader (Verweij R, Online: http://www.lighthacking.nl/nd2reader/) was employed to import the videos in the ND2 Nikon format.

[4] = tested on: C. albicans; details: cited from earlier work
[5] = tested on: S. cerevisiae BY4742; assay: Optical nanomotion detection (ONMD) of free yeast cells; format: cell-based, Saccharomyces cerevisiae
Source text: as §1, §2, §3, §5, §6

[6] = tested on: C. albicans DSY4614 (candin-resistant clinical strain); assay: Optical nanomotion detection (ONMD) of free yeast cells, antifungal susceptibility test; format: cell-based, Candida albicans
Source text: as §1, §2, §3, §5, §6

[7] = tested on: C. albicans DSY1024 (hypersusceptible, mutant for efflux systems); assay: as above; format: cell-based, Candida albicans
Source text: as §1, §2, §3, §5, §6

[8] = tested on: C. lusitaniae DSY4590 (resistant clinical strain); assay: Optical nanomotion detection (ONMD) of free yeast cells; format: cell-based, Candida lusitaniae; details: caspofungin 10 μg/ml; FIG. 4b left panel
Source text: as §1, §2
(§7) Ten μl of each yeast cell culture was dispensed in one of the microwells, using a 4 Well FulTrac micro-Insert (ibidi, Germany) in an imaging micro-dish (Ibidi, Germany). The yeast cells were allowed to sediment for a period of 10 min before starting the measurement. […]
(§8) The effect of ethanol on the viability of the cells was compared with cells grown in YPD medium as a reference. Therefore, first cell nanomotion videos were recorded and next (after approximately 1 min), 200 μl of ethanol (70% v/v) was added to the top chamber of the 4 micro-Insert wells. Videos were recorded every hour during a period of 5 h. […] Before starting the treatment with the antifungal, reference (no treatment) videos were recorded of yeast cells in YPD medium (time=0 h). […]
as §4

[9] = tested on: C. lusitaniae DSY4606; assay: as above; format: cell-based, Candida lusitaniae
Source text: as §1, §2, §7, §8, §4

[10] = tested on: C. glabrata DSY562; assay: as above; format: cell-based, Candida glabrata
Source text: as §1, §2, §7, §8, §4

[11] = tested on: S. cerevisiae; details: cited from earlier work
[12] = tested on: S. cerevisiae; details: cited from earlier work; remark: listed apart in the source
[13] = tested on: osteoblasts; details: AFM-cantilever method; cited from earlier work
[14] = caspofungin 10 μg/ml, surface-attached cells, FIG. 6, 18F-K
[15] = caspofungin treated, pooled from 1-5-hour treatments, FIG. 7d
[16] = ethanol 70% v/v, ten minutes after addition and diffusive mixing, t-test
[17] = ethanol 70%, Wilcoxon test, FIG. 15
[18] = ethanol 70%, ten minutes after addition

## C[C@@H]1[C@H](O)[C@@H](C)/C=C/C=C/C=C/C=C/C=C/C=C/C=C/[C@H](O[C@@H]2O[C@H](C)[C@@H](O)[C@H](N)[C@@H]2O)C[C@@H]2O[C@](O)(C[C@@H](O)C[C@@H](O)[C@H](O)CC[C@@H](O)C[C@@H](O)CC(=O)O[C@H]1C)C[C@H](O)[C@H]2C(=O)O [amphotericin B]
[1]
  concentration at which the cellular nanomotion is increased, as multiple of MIC: around 10 times the MIC
[1]; after 1 h treatment, FIG. 2g
  concentration at which the mean total displacement increased: 10 µg/mL
[1]; after 2 h treatment, FIG. 2h
  concentration at which the mean total displacement increased: 4 µg/mL
[1]; concentrations above 10 μg/ml (1 h) or 4 μg/ml (2 h)
  mean total displacement at higher drug concentrations: decreased
[1]; total displacement of 20 cells, 'this strain'
  MIC value detected by ONMD (lowest concentration where a change in nanomotion can be observed): 1 to 4 µg/mL
[2]
  susceptibility of the strain (characteristics): FKS1, S638Y, erg4 Resistant
[3]
  concentration at which the cellular nanomotion is increased, as multiple of MIC: around 10 times the MIC
[3]; after 1 h treatment, FIG. 16F
  concentration at which the total displacement shows an increase: 10 µg/mL
[3]; after 2 h treatment, FIG. 16G
  increase of total displacement after 2 h treatment: the increase is reduced
[3]; amphotericin B 100 μg/ml, 1 h, FIG. 2d
  nanomotion signal after 1 h treatment: decreased to values close to those recorded on dead cells
[3]; amphotericin B 100 μg/ml, t-test, FIG. 2d
  time of treatment after which a significant decrease in the mean total displacement was detected: 1 h
[3]; amphotericin B 500 μg/ml, FIG. 16A, 20A
  time of treatment after which a significant decrease in cellular displacements and total displacement was detected: 1 h
[3]; amphotericin B at a high concentration (500 μg/ml), 1 h, FIG. 20A
  cellular nanomotion after 1 h treatment, whole set of 20 cells: decreased to values close to those recorded on dead cells
[4]; 'this strain' (CAF2-1 or DSY294, not clear)
  reported amphotericin B MIC value, classical microtitre plate method: 0.3 µg/mL
[4]; C. albicans DSY strains
  reported amphotericin B MIC value: 0.5 µg/mL

## CC[C@H](C)C[C@H](C)CCCCCCCCC(=O)N[C@H]1C[C@@H](O)[C@@H](NCCN)NC(=O)[C@@H]2[C@@H](O)CCN2C(=O)[C@H]([C@H](O)CCN)NC(=O)[C@H]([C@H](O)[C@@H](O)c2ccc(O)cc2)NC(=O)[C@@H]2C[C@@H](O)CN2C(=O)[C@H]([C@@H](C)O)NC1=O [caspofungin]
[5]; caspofungin 10 μg/ml, FIG. 5a
  time of treatment after which a significant decrease of the total displacement was observed: 3 h
[3]; [14]
  total displacement of cells attached to concanavalin A coated glass, treated versus untreated: no significant decrease of the total displacement; also recorded: no significant difference
[3]; caspofungin 100 μg/ml, FIG. 2d, 16B
  time of treatment after which a significant decrease in (mean) total displacement was detected: 1 h
[3]; [15]
  critical frequency (fcrit) distribution of treated cells: broadening of their fcrit
[6]; caspofungin 10 μg/ml, FIG. 2e, 16E
  effect on nanomotion: did not affect the nanomotion
[6]; caspofungin 10 μg/ml, surface-attached cells, FIG. 6
  total displacement of cells attached to concanavalin A coated glass, treated versus untreated: no significant decrease of the total displacement
[6]; [15]
  critical frequency (fcrit) distribution of treated cells: broadening of their fcrit
[7]; caspofungin 10 μg/ml, FIG. 2f, 16D
  killing of cells judged by nanomotion: did kill
[7]; [14]
  total displacement of cells attached to concanavalin A coated glass, treated versus untreated: no significant decrease of the total displacement; also recorded: no significant difference
[7]; [15]
  additional fcrit of treated cells: around 2 Hz
  critical frequency (fcrit) distribution of treated cells, extent of broadening: most extended
[8]
  effect of treatment on nanomotion: not affected
[9]; caspofungin 10 μg/ml, FIG. 4b right panel
  killing of cells judged by nanomotion: killed
[10]; caspofungin, FIG. 4a
  time of treatment after which the cells were dead (nanomotion AFST): 2 h

## CCO [ethanol]
[5]; [16]
  change of total displacement: significant (t-test) decrease
[5]; [17]
  time after which a significant decrease of the total displacement was observed: 60 min
[5]; [18]
  displacements in the set of 20 cells: reduction of the displacements
[3]; ethanol 70% v/v, t-test, FIG. 2c
  time of treatment after which a significant decrease of the total displacement was measured: 60 min
[3]; [18]
  displacements in the set of 20 cells: reduction of the displacements
[9]; [16]
  change of total displacement: significant (t-test) decrease
[9]; [18]
  displacements in the set of 20 cells: reduction of the displacements
[11]
  higher ethanol concentrations that impair the cell membrane integrity, eventually apoptotic cell death: > 10%
  moderate ethanol concentrations that affect the growth rate: 5-7%
[10]; [16]
  change of total displacement: significant (t-test) decrease
[10]; [17]
  time after which a significant decrease of the total displacement was observed: 60 min
[10]; [18]
  displacements in the set of 20 cells: reduction of the displacements

## OC(Cn1cncn1)(Cn1cncn1)c1ccc(F)cc1F [fluconazole]
[5]; fluconazole 400 μg/ml, 1 h, FIG. 5b
  effect on total displacement after 1 h of treatment: no effect
[5]; fluconazole 400 μg/ml, FIG. 5b
  time of treatment after which a significant decrease in total displacement was obvious: 5 h
[3]; fluconazole 400 μg/ml, FIG. 2d, 16C
  time of treatment after which a significant decrease in (mean) total displacement was detected: 1 h
[12]
  fluconazole MIC value: 1 to 8 µg/mL

## cytochalasin
[13]
  cellular movement after depolymerizing the actin cytoskeleton: reduced cellular movement
